Reference: publication PMC7785802, “Therapeutic Efficacy of a Trichinella Spiralis Paramyosin-Derived Peptide Modified With a Membrane-Targeting Signal in Mice With Antigen-Induced Arthritis” (Frontiers in Microbiology, 2020)
Entries after “also recorded” stand apart in the source; their conditions may differ.

Tests used:
[1] = system: human complement C9; test: Microscale thermophoresis (MST) binding to human C9; conditions: for binding to human C9: NT-647-labeled human C9 1.5 μM, peptides diluted from 1.68 to 0 mM, distilled water with 0.05% Tween 20, 10 min room temperature, three independent measurements
Experimental: (§1) To assess the binding affinity of the peptides to human or mouse complement C9, a fluorescence-based biophysical technique known as MST (NanoTemper Technologies GmbH, Germany) was used. Briefly, human or mouse C9 was fluorescently labeled using a Monolith NT™ Protein Labeling Kit NT-647 (NanoTemper Technologies GmbH, Germany) based on the manufacturer's protocol. Next, the peptides were gradiently diluted in distilled water from 1.68 to 0 mM. The labeled human or mouse C9 (1.5 μM) was then incubated with various peptide concentrations for 10 min at room temperature before being loaded into K002 silica capillaries. Measurements were performed using a NanoTemper Monolith NT.115 instrument in distilled water containing 0.05% Tween 20. The data were analyzed using NanoTemper Analysis software (NanoTemper Technologies GmbH, Germany).
(§2) Figure 1 Modified peptide bound to human complement C9 and inhibited C9 polymerization-induced bio-function. (A) Microscale thermophoresis assay (NanoTemper) in which biomolecular interactions were quantitated by examining the motion of the molecules along a microscopic temperature gradient induced by an infrared laser. Changes in the molecular hydration shell, charge, or size are measured using a fluorescent probe (NT-647) bound covalently to the human C9. Binding of control, modified and original peptides to human C9 were studied. Data points indicate the differences in normalized fluorescence (%) generated by peptides binding to […], and curves indicate the calculated fits. […] Error bars represent the standard error of three independent measurements. […] Lane M: standard protein markers; lane 1: blank control (C9 without Zn^2+); lane 2: positive control (C9 with Zn^2+); lane 3: 5.24 μmol original peptide; lanes 4–6, 1.31, 2.62, and 5.24 μmol modified peptide, respectively; lane 7, 5.24 μmol control peptide. (C) Normal human serum (NHS)-induced complement-mediated hemolysis was inhibited by the modified and original peptides (2.62 and 5.24 μmol) compared to the control peptide. All experiments were performed three times and data are presented as mean ± SD. *p < 0.05, **p < 0.01.

[2] = system: human C9; test: Zn2+-induced human C9 polymerization assay; format: biochemical; conditions: for inhibition of Zn2+-induced C9 polymerization at 5.24 μmol: peptide 5.24 μmol
Experimental: Certain concentrations of C9 can polymerize when induced by certain concentrations of Zn^2+. However, the polymerization can be suppressed when C9 binds to inhibitors. C9 polymerization assays were used to evaluate the inhibitory effect of the peptides on Zn^2+-induced polymerization of human C9. Briefly, 2 μg C9 was preincubated with the peptides in 20 mM Tris buffer (pH 7.2) at 37°C for 40 min and then 50 μM Zn^2+ was added to induce C9 polymerization at 37°C for 2 h. The samples were subjected to 2.5–15% polyacrylamide gel electrophoresis to assess the inhibitory effects of the peptides on human C9 polymerization; the gels were visualized by staining with Coomassie blue.
as §2

[3] = system: recombinant mouse C9; test: Microscale thermophoresis (MST) binding to recombinant mouse C9; conditions: NT-647-labeled mouse C9 1.5 μM, peptides 1.68 to 0 mM, distilled water with 0.05% Tween 20, three independent measurements
Experimental: as §1
To evaluate whether the modified peptide can cross the species barrier to inhibit murine MAC assembly in addition to human MAC assembly and to provide a preliminary experimental basis for the in vivo mouse experiments, MST assays were used again to assess the binding ability of the peptides to recombinant mouse C9. […] To evaluate whether this binding can inhibit NMS-induced erythrocyte lysis (involving the alternative complement pathway), hemolytic assays were performed.
(A) Microscale thermophoresis assay (NanoTemper) in which biomolecular interactions are quantitated by examining the motion of the molecules along a microscopic temperature gradient induced by an infrared laser. Changes in the molecular hydration shell, charge, or size are measured using a fluorescent probe (NT-647) bound covalently to the mouse C9. Binding of control, modified and original peptides to mouse C9 were studied. […] Data points indicate the differences in normalized fluorescence (%) generated by peptides binding to mouse C9, and curves indicate the calculated fits. Error bars represent the standard error of three independent measurements. […] All experiments were performed three times and data are presented as mean ± SD. *p < 0.05, **p < 0.01.

[4] = system: complement in normal mouse serum (NMS); rabbit erythrocytes; test: NMS-induced complement-mediated hemolysis of rabbit erythrocytes (alternative pathway); format: cell-based; conditions: for inhibition of NMS-induced erythrocyte lysis: NMS 1:12.5, peptide 1.31, 2.62, 5.24 μmol, Mg-EGTA, 37°C 40 min, then rabbit erythrocytes 1 × 10^8, 30 min 37°C, absorbance 412 nm; for inhibition of NMS-induced erythrocyte lysis / inhibition of NMS-induced hemolysis compared to control peptide: three experiments; for NMS-induced erythrocyte lysis at 5.24 μmol: peptide 5.24 μmol, NMS 1:12.5; for inhibition of NMS-induced hemolysis compared to control peptide: peptide 2.62 and 5.24 μmol, *p < 0.05, **p < 0.01
Experimental: Normal human serum (NHS) was collected from six healthy volunteers, and the donation procedure was approved by the Institutional Review Board (IRB) of Capital Medical University (approval number: 2016SY01). After venous blood was collected, it was clotted in serum separator tubes for 4 h at room temperature and then centrifuged at 1,000 g for 30 min to obtain the serum. The serum was divided into aliquots and stored at −80°C. To obtain normal mouse serum (NMS), blood was collected in the […] of mice under ether anesthesia and the serum was separated and stored as described above.
When rabbit erythrocytes are placed in xenogeneic serum (such as NHS or NMS), the alternative pathway of the complement system is activated, causing lysis of the rabbit erythrocytes. To evaluate the effects of the peptides on the complement activation-mediated erythrocyte lysis (involving the alternative complement pathway), NHS or NMS (1:12.5) was incubated with various concentrations of peptides (1.31, 2.62, and 5.24 μmol) in Mg-EGTA solution (5 mM MgCl2, 10 mM EGTA) at 37°C for 40 min before adding the mixture to freshly washed erythrocytes (1 × 10^8) in gelatin veronal-buffered saline (pH 7.4, containing 0.1% gelatin) for 30 min at 37°C. Lysis was stopped with cold Hanks' Balanced Salt Solution (HBSS^++) containing 10 mM ethylenediaminetetraacetic acid (EDTA). The samples were then centrifuged at 1,000 g for 10 min to obtain the supernatant, and the amount of released hemoglobin in the supernatant was determined by measuring the absorbance at 412 nm. The hemolytic activity relative to the water-induced lysis among the same number of erythrocytes was calculated.
Figure 2 Modified peptide bound to mouse complement C9 and inhibited normal mouse serum (NMS)-induced hemolysis of rabbit erythrocytes. (A) Microscale thermophoresis assay (NanoTemper) in which biomolecular interactions are quantitated by examining the motion of the molecules along a microscopic temperature gradient induced by an infrared laser. Changes in the molecular hydration shell, charge, or size are measured using a fluorescent probe (NT-647) bound covalently to the mouse C9. Binding of control, modified and original peptides to mouse C9 were studied. […] Data points indicate the differences in normalized fluorescence (%) generated by peptides binding to mouse C9, and curves indicate the calculated fits. Error bars represent the standard error of three independent measurements. (B) NMS-induced complement-mediated hemolysis was inhibited by the modified and original peptides (2.62 and 5.24 μmol) compared to the control peptide. All experiments were performed three times and data are presented as mean ± SD. *p < 0.05, **p < 0.01.

[5] = 2 μg C9, 50 μM Zn2+, 37°C 2 h, PAGE, Coomassie blue

| Substance | binding to human C9 [1] | inhibition of Zn2+-induced C9 polymerization at 5.24 μmol [2, 5] | binding to recombinant mouse C9 [3] | inhibition of NMS-induced erythrocyte lysis [4] | NMS-induced erythrocyte lysis at 5.24 μmol [4] | inhibition of NMS-induced hemolysis compared to control peptide [4] | binding affinity to human C9 compared with original peptide ([1]; labeled human C9 1.5 μM, peptides 1.68 to 0 mM, Kd not given) | inhibition of Zn2+-induced C9 polymerization, concentration dependence ([2]; 2 μg C9, 20 mM Tris pH 7.2, 37°C 40 min preincubation, 50 μM Zn2+ 2 h, peptide 1.31, 2.62, 5.24 μmol, 2.5–15% PAGE) | inhibition of Zn2+-induced C9 polymerization at 2.62 μmol ([2]; peptide 2.62 μmol, 2 μg C9, 50 μM Zn2+, 37°C 2 h, PAGE, Coomassie blue) |
| --- | --- | --- | --- | --- | --- | --- | --- | --- | --- |
| VSMGKSLSSKVYVM [original peptide, tetradecapeptide derived from Trichinella spiralis paramyosin (Ts-pmy)] | human C9 could bind to both the original and modified peptides; also recorded: concentration-dependent binding | fully inhibited | could bind to the recombinant mouse C9; also recorded: concentration-dependent binding | inhibited in a dose-dependent manner | reduced, to a similar level to the NHS-induced erythrocyte lysis | inhibited |  |  |  |
| Myr-GSSKSPSKKKKKKPG-ACP-VSMGKSLSSKVYVM [modified peptide, Ts-pmy-derived peptide modified with a membrane-targeting signal] | human C9 could bind to both the original and modified peptides; also recorded: concentration-dependent binding | fully inhibited; also recorded: completely | could bind to the recombinant mouse C9; also recorded: concentration-dependent binding | inhibited in a dose-dependent manner | reduced, to a similar level to the NHS-induced erythrocyte lysis | inhibited | binding affinity that was similar to that of the original peptide | inhibited Zn^2+-induced C9 polymerization in a dose-dependent manner | slightly |
| GKMSVMSVYKSVLS [control peptide, reference compound] | no binding between human C9 and the control peptide | did not inhibit C9 polymerization | could not | no inhibitory effect |  |  |  |  |  |
